Assay results from ChEMBL document CHEMBL3885881, “DrugMatrix”.

Species: Rattus norvegicus
Experiment: DrugMatrix - Regimen: Daily Repeat
Assay type: toxicity, organism-based, Sprague-Dawley
Design: regimen Daily Repeat, gender Male, age 6-8 weeks
Settings: in vivo, po, route oral GAVAGE, vehicle 100 % WATER
[1] = 70 mg/kg, 72 h, tissue Blood, dose level Low, time 3 day
[2] = 70 mg/kg, 72 h, tissue Plasma, dose level Low, time 3 day
[3] = 70 mg/kg, 120 h, tissue Blood, dose level Low, time 5 day
[4] = 70 mg/kg, 120 h, tissue Plasma, dose level Low, time 5 day
[5] = 700 mg/kg, 72 h, tissue Blood, dose level High, time 3 day
[6] = 700 mg/kg, 72 h, tissue Plasma, dose level High, time 3 day
[7] = 700 mg/kg, 120 h, tissue Blood, dose level High, time 5 day
[8] = 700 mg/kg, 120 h, tissue Plasma, dose level High, time 5 day

Sequence: MANGANESE CHLORIDE ANHYDROUS
- ABSOLUTE BASOPHIL [1]: 0 CELLS/uL
- ABSOLUTE EOSINOPHIL [1]: 0 CELLS/uL
- ABSOLUTE LYMPHOCYTE [1]: 8843.67 CELLS/uL
- ABSOLUTE MONOCYTE [1]: 103.33 CELLS/uL
- ABSOLUTE SEGMENTED NEUTROPHIL [1]: 819.67 CELLS/uL
- BASOPHIL [1]: 0%
- EOSINOPHIL [1]: 0%
- ERYTHROCYTE COUNT [1]: 5.19 x10E6/uL
- HEMATOCRIT [1]: 32.17%
- HEMOGLOBIN [1]: 12.2 G/DL
- LEUKOCYTE COUNT [1]: 9.77 x10E3/uL
- LYMPHOCYTE [1]: 90%
- MEAN CORPUSCULAR HEMOGLOBIN [1]: 23.5 pg
- MEAN CORPUSCULAR HEMOGLOBIN CONCENTRATION [1]: 37.93 G/DL
- MEAN CORPUSCULAR VOLUME [1]: 61.97 fL
- MONOCYTE [1]: 0.67%
- NUCLEATED RED BLOOD CELLS [1]: 0 /100WBC
- PLATELET COUNT [1]: 1240.67 x10E3/uL
- ALANINE AMINOTRANSFERASE [2]: 53.33 u/L
- ALKALINE PHOSPHATASE [2]: 482 u/L
- ASPARTATE AMINOTRANSFERASE [2]: 91.67 u/L
- BLOOD UREA NITROGEN [2]: 13.33 mg/dL
- CARBON DIOXIDE [2]: 35.33 mmol/L
- CHLORIDE [2]: 99 MEQ/L
- CHOLESTEROL [2]: 84 mg/dL
- CREATINE PHOSPHOKINASE [2]: 442.33 u/L
- CREATININE [2]: 0.22 mg/dL
- GLUCOSE [2]: 139.33 mg/dL
- LACTATE DEHYDROGENASE [2]: 131 u/L
- PHOSPHORUS [2]: 12.07 mg/dL
- POTASSIUM [2]: 6.21 MEQ/L
- TOTAL BILIRUBIN [2]: 0.17 mg/dL
- TOTAL PROTEIN [2]: 6.27 G/DL
- URIC ACID [2]: 0.57 mg/dL
- ABSOLUTE BASOPHIL [3]: 0 CELLS/uL
- ABSOLUTE EOSINOPHIL [3]: 184.33 CELLS/uL
- ABSOLUTE MONOCYTE [3]: 189.67 CELLS/uL
- ABSOLUTE SEGMENTED NEUTROPHIL [3]: 2003 CELLS/uL
- BASOPHIL [3]: 0%
- EOSINOPHIL [3]: 1%
- ERYTHROCYTE COUNT [3]: 4.88 x10E6/uL
- HEMATOCRIT [3]: 30.07%
- HEMOGLOBIN [3]: 11.73 G/DL
- LEUKOCYTE COUNT [3]: 15.07 x10E3/uL
- LYMPHOCYTE [3]: 84%
- MEAN CORPUSCULAR HEMOGLOBIN [3]: 24.27 pg
- MEAN CORPUSCULAR HEMOGLOBIN CONCENTRATION [3]: 39.03 G/DL
- NEUTROPHIL [3]: 13.67%
- NUCLEATED RED BLOOD CELLS [3]: 0.33 /100WBC
- PLATELET COUNT [3]: 1245 x10E3/uL
- ALANINE AMINOTRANSFERASE [4]: 35.67 u/L
- ALBUMIN [4]: 3.9 G/DL
- ALKALINE PHOSPHATASE [4]: 338 u/L
- ASPARTATE AMINOTRANSFERASE [4]: 64.33 u/L
- BLOOD UREA NITROGEN [4]: 13.67 mg/dL
- CARBON DIOXIDE [4]: 31.67 mmol/L
- CHOLESTEROL [4]: 69.33 mg/dL
- CREATINE PHOSPHOKINASE [4]: 218 u/L
- CREATININE [4]: 0.22 mg/dL
- GLUCOSE [4]: 158.33 mg/dL
- LACTATE DEHYDROGENASE [4]: 105.67 u/L
- PHOSPHORUS [4]: 13.3 mg/dL
- POTASSIUM [4]: 6.22 MEQ/L
- TOTAL BILIRUBIN [4]: 0.17 mg/dL
- TOTAL PROTEIN [4]: 5.83 G/DL
- ABSOLUTE BASOPHIL [5]: 0 CELLS/uL
- ABSOLUTE EOSINOPHIL [5]: 33.67 CELLS/uL
- ABSOLUTE LYMPHOCYTE [5]: 10434.33 CELLS/uL
- ABSOLUTE MONOCYTE [5]: 178.67 CELLS/uL
- ABSOLUTE SEGMENTED NEUTROPHIL [5]: 1653.33 CELLS/uL
- BASOPHIL [5]: 0%
- EOSINOPHIL [5]: 0.33%
- ERYTHROCYTE COUNT [5]: 4.97 x10E6/uL
- HEMATOCRIT [5]: 30.43%
- HEMOGLOBIN [5]: 11.8 G/DL
- LEUKOCYTE COUNT [5]: 12.3 x10E3/uL
- LYMPHOCYTE [5]: 85.67%
- MEAN CORPUSCULAR HEMOGLOBIN [5]: 23.77 pg
- MEAN CORPUSCULAR HEMOGLOBIN CONCENTRATION [5]: 38.77 G/DL
- NEUTROPHIL [5]: 12.67%
- NUCLEATED RED BLOOD CELLS [5]: 0 /100WBC
- PLATELET COUNT [5]: 1357.33 x10E3/uL
- ALANINE AMINOTRANSFERASE [6]: 45 u/L
- ALBUMIN [6]: 3.77 G/DL
- ALKALINE PHOSPHATASE [6]: 329.67 u/L
- ASPARTATE AMINOTRANSFERASE [6]: 86.33 u/L
- BLOOD UREA NITROGEN [6]: 13.67 mg/dL
- CARBON DIOXIDE [6]: 36.33 mmol/L
- CHLORIDE [6]: 99 MEQ/L
- CHOLESTEROL [6]: 63.33 mg/dL
- CREATINE PHOSPHOKINASE [6]: 347.67 u/L
- CREATININE [6]: 0.26 mg/dL
- GLUCOSE [6]: 139.67 mg/dL
- LACTATE DEHYDROGENASE [6]: 119 u/L
- PHOSPHORUS [6]: 11.6 mg/dL
- POTASSIUM [6]: 5.86 MEQ/L
- SODIUM [6]: 145.53 MEQ/L
- TOTAL BILIRUBIN [6]: 0.17 mg/dL
- TOTAL PROTEIN [6]: 6.23 G/DL
- URIC ACID [6]: 0.47 mg/dL
- ABSOLUTE BASOPHIL [7]: 0 CELLS/uL
- ABSOLUTE EOSINOPHIL [7]: 0 CELLS/uL
- ABSOLUTE LYMPHOCYTE [7]: 14144.67 CELLS/uL
- ABSOLUTE MONOCYTE [7]: 257.33 CELLS/uL
- ABSOLUTE SEGMENTED NEUTROPHIL [7]: 3531.33 CELLS/uL
- BASOPHIL [7]: 0%
- EOSINOPHIL [7]: 0%
- ERYTHROCYTE COUNT [7]: 5.15 x10E6/uL
- HEMATOCRIT [7]: 30.93%
- HEMOGLOBIN [7]: 11.9 G/DL
- LEUKOCYTE COUNT [7]: 17.93 x10E3/uL
- LYMPHOCYTE [7]: 79.67%
- MEAN CORPUSCULAR HEMOGLOBIN [7]: 23.1 pg
- MEAN CORPUSCULAR VOLUME [7]: 60.03 fL
- NEUTROPHIL [7]: 19%
- NUCLEATED RED BLOOD CELLS [7]: 0 /100WBC
- PLATELET COUNT [7]: 1336.67 x10E3/uL
- ALANINE AMINOTRANSFERASE [8]: 40 u/L
- ALKALINE PHOSPHATASE [8]: 346.33 u/L
- ASPARTATE AMINOTRANSFERASE [8]: 68.67 u/L
- BLOOD UREA NITROGEN [8]: 12.67 mg/dL
- CARBON DIOXIDE [8]: 33.67 mmol/L
- CHOLESTEROL [8]: 76.33 mg/dL
- CREATINE PHOSPHOKINASE [8]: 209.67 u/L
- CREATININE [8]: 0.31 mg/dL
- GLUCOSE [8]: 139.67 mg/dL
- LACTATE DEHYDROGENASE [8]: 88.67 u/L
- POTASSIUM [8]: 5.7 MEQ/L
- TOTAL BILIRUBIN [8]: 0.17 mg/dL
- TOTAL PROTEIN [8]: 5.97 G/DL
- URIC ACID [8]: 0.4 mg/dL
